Source: PMC10313808, “Lipoxygenase inhibitory synthetic derivatives of methyl gallate regulate gene expressions of COX-2 and cytokines to reduce animal model arthritis” (Scientific Reports, 2023)
Marks after values point to notes of the source that are not given here. Values belong to the compound of their own block, whether it stands above or below them.

Experiments:
[1] = target: T1, Lipoxidase from Glycine max (15- LOX) (Glycine max, UniProt P08170); test: In-vitro LOX enzyme inhibition assay (spectrophotometric, 234 nm); format: biochemical
T1 construct: purchased Sigma (Sigma-Aldrich, UK)
T1 sequence (P08170 1-839): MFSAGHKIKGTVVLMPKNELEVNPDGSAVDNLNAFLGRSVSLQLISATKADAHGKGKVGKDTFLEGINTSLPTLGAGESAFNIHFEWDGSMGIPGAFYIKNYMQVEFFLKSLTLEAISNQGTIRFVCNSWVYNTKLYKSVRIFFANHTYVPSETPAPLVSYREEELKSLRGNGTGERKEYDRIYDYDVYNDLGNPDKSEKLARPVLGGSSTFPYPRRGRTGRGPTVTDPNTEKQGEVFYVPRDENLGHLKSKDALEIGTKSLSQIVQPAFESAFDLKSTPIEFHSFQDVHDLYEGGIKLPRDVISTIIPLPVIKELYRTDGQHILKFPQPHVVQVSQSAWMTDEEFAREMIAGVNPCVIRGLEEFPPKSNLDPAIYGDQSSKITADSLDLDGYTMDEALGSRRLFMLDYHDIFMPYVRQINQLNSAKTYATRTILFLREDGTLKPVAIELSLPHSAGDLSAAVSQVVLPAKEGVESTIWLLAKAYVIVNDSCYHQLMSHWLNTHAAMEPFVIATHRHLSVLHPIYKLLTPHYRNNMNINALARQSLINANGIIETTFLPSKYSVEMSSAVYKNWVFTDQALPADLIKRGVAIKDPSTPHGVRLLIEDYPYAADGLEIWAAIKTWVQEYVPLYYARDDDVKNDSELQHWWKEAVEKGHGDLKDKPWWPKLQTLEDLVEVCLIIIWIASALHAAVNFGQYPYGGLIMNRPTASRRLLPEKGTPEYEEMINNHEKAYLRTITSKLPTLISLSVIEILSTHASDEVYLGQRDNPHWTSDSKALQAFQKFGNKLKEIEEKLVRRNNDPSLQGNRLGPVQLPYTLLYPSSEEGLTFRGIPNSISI
Method: The LOX inhibition assays were performed with MGSDs. The inhibitory activity was measured by a modified spectrophotometric method[16],[39]. The plant LOX pathway is in many respects equivalent to the ‘arachidonic acid cascades’ in animals. For this reason, the in vitro inhibition of LOX constitutes a good model for the screening of compounds with anti-inflammatory potential[40],[41]. LOX (Lipoxidase from Glycine max (15- LOX); EC 1.13.11.12) type I-B (Soybean), and linoleic acid were purchased from Sigma (Sigma-Aldrich, UK) and used without further purification. Enzyme solution of 1.03 µM was prepared in 0.2 mM borate buffer, pH 8.5. The substrate, linoleic acid solution of 0.3 mM was also prepared in the borate buffer at the same pH. […] The final concentration of MGSDs used for the analysis was 20 µM. The assay mixture was made of 50 µL of LOX, 50 µL of the test solution and 360 µL of the substrate. The final volume was made up to 2 mL with corresponding borate buffer quantity. The activity of LOX was measured on the formation of […], which was monitored at 234 nm on spectrophotometer, (HITACHI U 2900, Japan). The same procedure was repeated with triplicate for the confirmation of LOX inhibitory activity[16],[39].

[2] = tested on: FCA-induced arthritis; test: FCA-induced arthritis: hind paw volume; format: in vivo, Sprague–Dawley (SD) rats; conditions: for Percentage of inhibition (paw oedema) / Paw volume (mL) (mean ± SEM) 9th day / Paw volume (mL) (mean ± SEM) 18th day / Paw volume (mL) (mean ± SEM) 28th day / Paw volume (mL) (mean ± SEM) Initial day: FCA rats; for amount required relative to diclofenac for the same level of effect: in vivo FCA arthritis studies
Method: (§1) Chronic inflammation induced by Freund's Complete Adjuvant contains a suspension of heat-killed Mycobacterium tuberculosis in the vehicle (Chondrex, Labex Corporation). 100 μL of FCA (10 mg/mL) was injected intradermally to the left-hand paw of SD rats[42]. […] Induction of inflammation became chronic by 9–12 days and then rats were divided into 7 groups having 6 rats in each group. Everything possible was done to minimize the suffering of experimental animals. Minimum number of rats only were drafted to generate reliable data. 42 rats were randomly allocated into seven groups (6 × 7).
(§2) Group I (n = 6) served as normal rats that received an equal volume of vehicle control. Group II (n = 6) was arthritic model control treated with vehicle only. Group III (n = 6) was arthritic control which received the diclofenac (10 mg.kg^–1). Groups IV (n = 6), V (n = 6), VI (n = 6) and VII (n = 6) were treated with a low and high dose of methyl gallate (20 mg.kg^–1, 40 mg.kg^–1) and MGSD 1 (1 mg.kg^–1, 10 mg.kg^–1). The drugs were orally administered through oral gavage daily in PBS vehicle for 28 days.
By a plethysmometer the rat hind paw volume was measured from the initial day to final day (28th day) with successive intervals of 9 days, before and after FCA injection. The inhibition was calculated by the formula given below. Percentageinhibition=1-Meanchangesinpawvolumeoftreatedrat/Meanchangesinpawvolumeofuntreatedrat×100.

[3] = tested on: FCA-induced arthritis; test: FCA-induced arthritis: haematological parameters; format: in vivo, Sprague–Dawley (SD) rats; conditions: FCA rats
Method: as §1, §2
Blood was drawn from jugular vein[43] and collected in heparinized tubes and used for further analysis. By using Horiba 5-part hematology analyzer the blood parameters like RBC, WBC, neutrophil and hemoglobin were analyzed. Serum parameters were analyzed using Stat Fax autoanalyzer. Serum glutamic pyruvic transaminase (SGPT), serum glutamic oxaloacetic transaminase (SGOT) and alkaline phosphatase (ALP) were determined using standard diagnostic kits (Proton, Accurex).

[4] = tested on: ankle joints, liver, spleen, and thymus; test: FCA-induced arthritis: histological analysis; format: in vivo, Sprague–Dawley (SD) rats; conditions: FCA rats; for Histology of liver / Histology of spleen: dose not stated; for Histology of thymus: methyl gallate high dose
Method: The animals used for the FCA induced arthritis were euthanized at the end of the experiment and the ankle joints were separated from the hind paw and fixed in 10% buffered formalin. Similarly, liver, spleen, and thymus were also dissected carefully and immersed in fixative, and after 24 h each specimen were decalcified in 5% nitric acid, followed by embedding in paraffin wax and 4 µm thickness sections were prepared. These prepared sections were then mounted and stained with hematoxylin and[…] under brightfield compound binocular research microscope at 100X and 400X magnification and inflammation was graded.

SMILES: COC(=O)c1cc(O)c(O)c(O)c1 [Methyl gallate]
inhibition at 200 µM ([1]; 0.2 mM compound): 61 ± 1.35%
Percentage of inhibition (paw oedema) ([2]; 20 mg.kg^−1 oral): 45%
Paw volume (mL) (mean ± SEM) 9th day ([2]; 20 mg.kg^−1 oral): 1.32 ± 0.16 mL
Paw volume (mL) (mean ± SEM) 18th day ([2]; 20 mg.kg^−1 oral): 1.24 ± 0.22 mL
Paw volume (mL) (mean ± SEM) 28th day ([2]; 20 mg.kg^−1 oral): 1.18 ± 0.08 mL
Paw volume (mL) (mean ± SEM) Initial day ([2]; 20 mg.kg^−1 oral): 0.56 ± 0.05 mL
Percentage of inhibition (paw oedema) ([2]; 40 mg.kg^−1 oral): 37%
Paw volume (mL) (mean ± SEM) 9th day ([2]; 40 mg.kg^−1 oral): 1.66 ± 0.18 mL
Paw volume (mL) (mean ± SEM) 18th day ([2]; 40 mg.kg^−1 oral): 1.56 ± 0.24 mL
Paw volume (mL) (mean ± SEM) 28th day ([2]; 40 mg.kg^−1 oral): 1.4 ± 0.09 mL
Paw volume (mL) (mean ± SEM) Initial day ([2]; 40 mg.kg^−1 oral): 0.50 ± 0.05 mL
Percentage of inhibition (paw oedema) ([2]; 40 mg.kg^−1 oral, listed as methyl gallate): 35–45%
amount required relative to diclofenac for the same level of effect [2]: approximately five times of diclofenac
Hb ([3]; 20 mg.kg^−1 oral): 14.2 ± 0.65 g/dL
Lymphocyte ([3]; 20 mg.kg^−1 oral): 79 ± 0.79%
Neutro phil ([3]; 20 mg.kg^−1 oral): 11.7 ± 0.25%
RBC ([3]; 20 mg.kg^−1 oral): 7.47 ± 0.32^# 10^6/mm^3
WBC ([3]; 20 mg.kg^−1 oral): 8.3 ± 0.6 10^3/mm^3
Hb ([3]; 40 mg.kg^−1 oral): 14.4 ± 0.74 g/dL
Lymphocyte ([3]; 40 mg.kg^−1 oral): 78.6 ± 1.85%
Neutro phil ([3]; 40 mg.kg^−1 oral): 12.8 ± 0.4%
RBC ([3]; 40 mg.kg^−1 oral): 7.87 ± 0.34^# 10^6/mm^3
WBC ([3]; 40 mg.kg^−1 oral): 11.25 ± 0.62^# 10^3/mm^3
Histology of ankle joints ([4]; 40 mg.kg^-1): synovial space with neutrophil infiltration, although much less than that of arthritic control
Histology of liver [4]: hepatocyte arrays and central sinusoid area were seen to regain normalcy and a few necrotic cells were still visible
Histology of spleen [4]: lesser degree of spleen reversion
Histology of thymus [4]: effective in controlling inflammation-based T-Cell proliferation

inhibition at 20 µM ([1]; 20 μM compound): 70 ± 3.45%
SMILES: O=C(O)COc1cc(C(=O)O)cc(OCC(=O)O)c1OCC(=O)O [MGSD 1, 2,2′,2″-((5-carboxybenzene-1,2,3-triyl)tris(oxy)) tri acetic acid]
Percentage of inhibition (paw oedema) ([2]; 1 mg.kg^−1 oral): 68%
Paw volume (mL) (mean ± SEM) 9th day ([2]; 1 mg.kg^−1 oral): 0.97 ± 0.16 mL
Paw volume (mL) (mean ± SEM) 18th day ([2]; 1 mg.kg^−1 oral): 0.68 ± 0.22 mL
Paw volume (mL) (mean ± SEM) 28th day ([2]; 1 mg.kg^−1 oral): 0.59 ± 0.08 mL
Paw volume (mL) (mean ± SEM) Initial day ([2]; 1 mg.kg^−1 oral): 0.50 ± 05 mL
Percentage of inhibition (paw oedema) ([2]; 10 mg.kg^−1 oral): 70%
Paw volume (mL) (mean ± SEM) 9th day ([2]; 10 mg.kg^−1 oral): 1.05 ± 0.16 mL
Paw volume (mL) (mean ± SEM) 18th day ([2]; 10 mg.kg^−1 oral): 0.69 ± 0.22 mL
Paw volume (mL) (mean ± SEM) 28th day ([2]; 10 mg.kg^−1 oral): 0.56 ± 0.08 mL
Paw volume (mL) (mean ± SEM) Initial day ([2]; 10 mg.kg^−1 oral): 0.50 ± 0.05 mL
amount required relative to diclofenac for the same level of effect [2]: approximately 1/12
Hb ([3]; 1 mg.kg^−1 oral): 14.8 ± 0.42 g/dL
Lymphocyte ([3]; 1 mg.kg^−1 oral): 75.8 ± 0.21%
Neutro phil ([3]; 1 mg.kg^−1 oral): 11.6 ± 0.76%
RBC ([3]; 1 mg.kg^−1 oral): 6.93 ± 0.18^# 10^6/mm^3
WBC ([3]; 1 mg.kg^−1 oral): 9.3 ± 0.48^# 10^3/mm^3
Hb ([3]; 10 mg.kg^−1 oral): 14.2 ± 0.26 g/dL
Lymphocyte ([3]; 10 mg.kg^−1 oral): 75.9 ± 3.44%
Neutro phil ([3]; 10 mg.kg^−1 oral): 13.4 ± 0.23%
RBC ([3]; 10 mg.kg^−1 oral): 7.075 ± 0.37^# 10^6/mm^3
WBC ([3]; 10 mg.kg^−1 oral): 8.45 ± 0.98* 10^3/mm^3
Histology of ankle joints ([4]; 10 mg.kg^-1): reduced oedema formation and neutrophil infiltration was found very low
Histology of liver [4]: central sinusoid visible and hepatic array of cells normal
Histology of spleen [4]: more efficient in controlling the inflammatory response than methyl gallate and diclofenac
Histology of thymus [4]: more effective than the parent compound in reverting inflammation-based T-Cell proliferation
